Key:
Test in all cases: Test B pre-/postemergence plant response
Assay type in all cases: in vivo
[1] = tested on: cocklebur (Xanthium strumarium); settings: for Cocklebur plant response rating: 8 g ai/ha
Procedure, shortened: (§1)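 Preemergence and postemergence (plants 2-18 cm, 1- to 4-leaf stage) applications used test chemicals in a non-phytotoxic solvent with surfactant. Plants were held in a greenhouse 13 to 15 days, then rated visually against controls on a 0-100 scale (0 no effect, 100 complete control).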

[2] = tested on: green foxtail (Setaria viridis); settings: for Foxtail, Green plant response rating: 8 g ai/ha
Procedure, shortened: as §1

[3] = tested on: catchweed bedstraw (Galium aparine); settings: Preemergence
Procedure, shortened: as §1

[4] = tested on: eastern black (E.B.) nightshade (Solanum ptycanthum); settings: Preemergence
Procedure, shortened: as §1

[5] = tested on: lambsquarters (Chenopodium album); settings: for Lambsquarters plant response rating: 8 g ai/ha
Procedure, shortened: as §1

[6] = tested on: Italian ryegrass (Lolium multiflorum); settings: for Ryegrass, Italian plant response rating: 8 g ai/ha
Procedure, shortened: as §1

corn (Zea mays) = settings: for Corn plant response rating: 8 g ai/ha
Procedure, shortened: as §1

[7] = tested on: morningglory (Ipomoea coccinea); settings: for Morningglory plant response rating: 8 g ai/ha
Procedure, shortened: as §1

[8] = tested on: common ragweed (Ambrosia elation); settings: for Ragweed plant response rating: 8 g ai/ha
Procedure, shortened: as §1

[9] = tested on: surinam grass (Brachiaria decumbens); settings: for Surinam Grass plant response rating: 8 g ai/ha
Procedure, shortened: as §1

[10] = tested on: yellow nutsedge (Cyperus esculentus); settings: for Nutsedge, Yellow plant response rating: 8 g ai/ha
Procedure, shortened: as §1

[11] = tested on: Russian thistle (Salsola iberica); settings: Preemergence
Procedure, shortened: as §1

wild oat (Avena fatua) = settings: for Oat, Wild plant response rating: 8 g ai/ha
Procedure, shortened: as §1

kochia (Kochia scoparia) = settings: for Kochia plant response rating: 8 g ai/ha
Procedure, shortened: as §1

[12] = Postemergence, 16 g ai/ha, scale 0 to 100
[13] = Postemergence, 31 g ai/ha, scale 0 to 100
[14] = Postemergence, 62 g ai/ha, scale 0 to 100, 0 no effect, 100 complete control
[15] = Preemergence, 16 g ai/ha, scale 0 to 100 (0 no effect, 100 complete control)
[16] = Preemergence, 31 g ai/ha, 0 to 100 scale, 0 no effect, 100 complete control
[17] = Preemergence, 62 g ai/ha, scale 0 to 100
[18] = 16 g ai/ha, scale 0 to 100 (0 no effect, 100 complete control)
[19] = 31 g ai/ha, scale 0 to 100 (0 no effect, 100 complete control)
[20] = Preemergence, 31 g ai/ha, scale 0 to 100 (0 no effect, 100 complete control)

Cc1cc(-c2ccc(Cl)cc2)nn1-c1c(OC(=O)c2ccccc2)cnn(C)c1=O [Compound 48]
Cocklebur plant response rating ([1]; postemergence, 0-100 scale): 0 | Plant response rating, Cocklebur [1, 12]: 0 | Plant response rating, Cocklebur [1, 13]: 0 | Plant response rating, Cocklebur [1, 14]: 0 | Plant response rating, Cocklebur [1, 15]: 0 | Plant response rating, Cocklebur [1, 16]: 0 | Plant response rating, Cocklebur [1, 17]: 0 | Cocklebur plant response rating ([1]; Preemergence, scale 0 to 100): 0 | Foxtail, Green plant response rating ([2]; postemergence, 0-100 scale): 70 | Plant response rating, Foxtail, Green [2, 12]: 98 | Plant response rating, Foxtail, Green [2, 13]: 100 | Plant response rating, Foxtail, Green [2, 14]: 100 | Plant response rating, Foxtail, Green [2, 15]: 80 | Plant response rating, Foxtail, Green [2, 16]: 100 | Plant response rating, Foxtail, Green [2, 17]: 100 | Foxtail, Green plant response rating ([2]; Preemergence, scale 0 to 100): 30 | Plant response rating, Galium [3, 18]: 0 | Plant response rating, Galium ([3]; 31 g ai/ha, 0 to 100 scale, 0 no effect, 100 complete control): 0 | Plant response rating, Nightshade, E. B. [4, 18]: 0 | Plant response rating, Nightshade, E. B. [4, 19]: 0 | Plant response rating, Nightshade, E. B. ([4]; 62 g ai/ha, scale 0 to 100): 20 | Nightshade, E. B. plant response rating ([4]; 8 g ai/ha, scale 0 to 100): 0 | Lambsquarters plant response rating ([5]; postemergence, 0-100 scale): 0 | Plant response rating, Lambsquarters [5, 12]: 0 | Plant response rating, Lambsquarters [5, 13]: 0 | Plant response rating, Lambsquarters [5, 14]: 0 | Plant response rating, Lambsquarters [5, 15]: 0 | Plant response rating, Lambsquarters [5, 16]: 0 | Plant response rating, Lambsquarters [5, 17]: 0 | Lambsquarters plant response rating ([5]; Preemergence, scale 0 to 100): 0 | Ryegrass, Italian plant response rating ([6]; postemergence, 0-100 scale): 40 | Plant response rating, Ryegrass, Italian [6, 12]: 90 | Plant response rating, Ryegrass, Italian [6, 13]: 100 | Plant response rating, Ryegrass, Italian [6, 14]: 100 | Plant response rating, Ryegrass, Italian [6, 15]: 85 | Plant response rating, Ryegrass, Italian [6, 20]: 100 | Plant response rating, Ryegrass, Italian [6, 17]: 100 | Ryegrass, Italian plant response rating ([6]; Preemergence, scale 0 to 100): 85 | Corn plant response rating (corn (Zea mays); postemergence, 0-100 scale): 90 | Plant response rating, Corn (corn (Zea mays); [12]): 95 | Plant response rating, Corn (corn (Zea mays); [13]): 100 | Plant response rating, Corn (corn (Zea mays); [14]): 100 | Plant response rating, Corn (corn (Zea mays); [15]): 55 | Plant response rating, Corn (corn (Zea mays); [16]): 70 | Plant response rating, Corn (corn (Zea mays); [17]): 75 | Corn plant response rating (corn (Zea mays); Preemergence, scale 0 to 100): 15 | Morningglory plant response rating ([7]; postemergence, 0-100 scale): 0 | Plant response rating, Morningglory [7, 12]: 0 | Plant response rating, Morningglory [7, 13]: 0 | Plant response rating, Morningglory [7, 14]: 0 | Plant response rating, Morningglory [7, 15]: 0 | Plant response rating, Morningglory [7, 20]: 0 | Plant response rating, Morningglory [7, 17]: 0 | Morningglory plant response rating ([7]; Preemergence, scale 0 to 100): 0 | Ragweed plant response rating ([8]; postemergence, 0-100 scale): 0 | Plant response rating, Ragweed [8, 12]: 0 | Plant response rating, Ragweed [8, 13]: 0 | Plant response rating, Ragweed [8, 14]: 0 | Plant response rating, Ragweed [8, 15]: 0 | Plant response rating, Ragweed [8, 20]: 0 | Plant response rating, Ragweed [8, 17]: 0 | Ragweed plant response rating ([8]; Preemergence, scale 0 to 100): 0 | Surinam Grass plant response rating ([9]; postemergence, 0-100 scale): 75 | Plant response rating, Surinam Grass [9, 12]: 90 | Plant response rating, Surinam Grass [9, 13]: 100 | Plant response rating, Surinam Grass [9, 14]: 100 | Plant response rating, Surinam Grass [9, 15]: 40 | Plant response rating, Surinam Grass [9, 20]: 65 | Plant response rating, Surinam Grass ([9]; Preemergence, 62 g ai/ha, 0 to 100 scale, 0 no effect, 100 complete control): 75 | Surinam Grass plant response rating ([9]; Preemergence, scale 0 to 100): 0 | Nutsedge, Yellow plant response rating ([10]; postemergence, 0-100 scale): 0 | Plant response rating, Nutsedge, Yellow [10, 12]: 0 | Plant response rating, Nutsedge, Yellow [10, 13]: 0 | Plant response rating, Nutsedge, Yellow [10, 14]: 0 | Plant response rating, Nutsedge, Yellow [10, 15]: 0 | Plant response rating, Nutsedge, Yellow [10, 20]: 0 | Plant response rating, Nutsedge, Yellow [10, 17]: 0 | Nutsedge, Yellow plant response rating ([10]; Preemergence, scale 0 to 100): 0 | Plant response rating, Russian Thistle [11, 18]: 0 | Plant response rating, Russian Thistle [11, 19]: 0 | Plant response rating, Russian Thistle ([11]; 62 g ai/ha, scale 0 to 100): 0 | Russian Thistle plant response rating ([11]; 8 g ai/ha, scale 0 to 100): 0 | Oat, Wild plant response rating (wild oat (Avena fatua); postemergence, 0-100 scale): 80 | Plant response rating, Oat, Wild (wild oat (Avena fatua); [12]): 95 | Plant response rating, Oat, Wild (wild oat (Avena fatua); [13]): 98 | Plant response rating, Oat, Wild (wild oat (Avena fatua); [14]): 100 | Plant response rating, Oat, Wild (wild oat (Avena fatua); [15]): 5 | Plant response rating, Oat, Wild (wild oat (Avena fatua); [20]): 80 | Plant response rating, Oat, Wild (wild oat (Avena fatua); [17]): 85 | Oat, Wild plant response rating (wild oat (Avena fatua); Preemergence, scale 0 to 100): 0 | Kochia plant response rating (kochia (Kochia scoparia); postemergence, 0-100 scale): 0 | Plant response rating, Kochia (kochia (Kochia scoparia); [12]): 0 | Plant response rating, Kochia (kochia (Kochia scoparia); [13]): 0 | Plant response rating, Kochia (kochia (Kochia scoparia); [14]): 0 | Plant response rating, Kochia (kochia (Kochia scoparia); [15]): 0 | Plant response rating, Kochia (kochia (Kochia scoparia); [16]): 0 | Plant response rating, Kochia (kochia (Kochia scoparia); [17]): 0 | Kochia plant response rating (kochia (Kochia scoparia); Preemergence, scale 0 to 100): 0

Source: patent US20100267561A1, “HERBICIDAL PYRIDAZINONE DERIVATIVES” (priority 2007, published 2010)
